# From ChEMBL document CHEMBL6127052, “Discovery of membrane-targeting amphiphilic honokiol derivatives containing an oxazolethione moiety to combat methicillin-resistant Staphylococcus aureus (MRSA) infections” (Eur J Med Chem, 2024)
# Calls of active or inactive are those of the source. The calls are words filed in the database; no cut-off is given here.
# What was measured:
# Staphylococcus aureus [1] = test: Antibacterial activity against methicillin-resistant Staphylococcus aureus N315 by CLSI based micro-broth dilution method; format: functional
# Staphylococcus aureus [2] = test: Antibacterial activity against methicillin-resistant Staphylococcus aureus clinical isolate M20 by CLSI based micro-broth dilution method; format: functional
# Staphylococcus aureus [3] = test: Antibacterial activity against methicillin-resistant Staphylococcus aureus clinical isolate M22 by CLSI based micro-broth dilution method; format: functional
# Escherichia coli = test: Antibacterial activity against Escherichia coli ATCC 25922 by CLSI based micro-broth dilution method; format: functional
# [4] = Hemolytic activity in sheep erythrocytes incubated for 1 hr by absorbance based assay; format: toxicity, cell-based, Ovis aries, Erythrocyte
# Staphylococcus aureus [5] = test: Bactericidal activity against methicillin-resistant Staphylococcus aureus clinical isolate M12 at 8 times MIC incubated upto 8 hrs by time-kill assay; format: functional, organism-based
# Staphylococcus aureus [6] = test: Bactericidal activity against methicillin-resistant Staphylococcus aureus clinical isolate M12 assessed as inhibition of bacterial growth at 4 times MIC incubated upto 8 hrs by time-kill assay; format: functional, organism-based
# Staphylococcus aureus [7] = test: Bactericidal activity against Staphylococcus aureus ATCC 29213 at 8 times MIC incubated for 6 hrs by time-kill assay relative to control; format: functional
# Staphylococcus aureus [8] = test: Disruption of cell membrane in methicillin-resistant Staphylococcus aureus clinical isolate M12 assessed as fold increase in intracellular ROS level at 128 ug/ml incubated for 40 mins by DCFH-DA probe based analysis relative to control; format: functional; settings: dose 128 µg/ml
# Staphylococcus aureus [9] = test: Disruption of cell membrane in methicillin-resistant Staphylococcus aureus clinical isolate M12 assessed as fold increase in protein leakage at 8 times MIC incubated for 4 hrs by BCA assay relative to control; format: functional
# Staphylococcus aureus [10] = test: Disruption of cell membrane in methicillin-resistant Staphylococcus aureus clinical isolate M12 assessed as increase in DNA leakage incubated for 4 hrs by […]; format: functional, organism-based; settings: dose <= 16.0 µg/ml
# [11] = Cytotoxicity against human L02 cells assessed as cell viability at 64 ug/ml by CCK8 assay relative to control; format: toxicity, cell-based; settings: at 64 µg/mL, read-out: Activity
# [12] = Toxicity in KM mouse assessed as formation of hard lumps at administration site at >40 mg/kg, sc; format: organism-based; settings: in vivo
# [13] = Toxicity in KM mouse assessed as smooth skin at <20 mg/kg, sc; format: organism-based; settings: in vivo
# [14] = Toxicity in KM mouse assessed as skin abnormality at <20 mg/kg, sc; format: organism-based; settings: in vivo
# [15] = Toxicity in KM mouse assessed as change in creatinine level at 20 mg/kg, sc measured after 24 hrs; format: organism-based; settings: in vivo
# [16] = Toxicity in KM mouse assessed as change in urea level at 20 mg/kg, sc measured after 24 hrs; format: organism-based; settings: in vivo
# [17] = Toxicity in KM mouse assessed as clear skin section at 20 mg/kg, sc measured after 24 hrs by H and E staining based analysis; format: organism-based; settings: in vivo
# [18] = Toxicity in KM mouse assessed as inflammatory cell infiltration in cardiac muscle fibers at 20 mg/kg, sc measured after 24 hrs by H and E staining based analysis; format: organism-based; settings: in vivo
# [19] = Toxicity in KM mouse assessed as edema in hepatocytes at 20 mg/kg, sc measured after 24 hrs by H and E staining based analysis; format: organism-based; settings: in vivo
# [20] = Toxicity in KM mouse assessed as inflammatory cell infiltration in lung epithelial cells at 20 mg/kg, sc measured after 24 hrs by H and E staining based analysis; format: organism-based; settings: in vivo
# [21] = Toxicity in KM mouse assessed as degeneration of renal tubular epithelial cells at 20 mg/kg, sc measured after 24 hrs by H and E staining based analysis; format: organism-based; settings: in vivo
# [22] = Toxicity in KM mouse assessed as pathological change in red medulla of spleen at 20 mg/kg, sc measured after 24 hrs by H and E staining based analysis; format: organism-based; settings: in vivo
# [23] = Toxicity in KM mouse assessed as pathological change in white medulla of spleen at 20 mg/kg, sc measured after 24 hrs by H and E staining based analysis; format: organism-based; settings: in vivo
# [24] = Toxicity in KM mouse assessed as pathological change in heart at 20 mg/kg, sc measured after 24 hrs by H and E staining based analysis; format: organism-based; settings: in vivo
# [25] = Toxicity in KM mouse assessed as pathological change in lung at 20 mg/kg, sc measured after 24 hrs by H and E staining based analysis; format: organism-based; settings: in vivo
# [26] = Toxicity in KM mouse assessed as pathological change in kidney at 20 mg/kg, sc measured after 24 hrs by H and E staining based analysis; format: organism-based; settings: in vivo
# [27] = Toxicity in BALB/c mouse assessed as change in mental status at <15 mg/kg, ip bid for 7 days; format: organism-based; settings: in vivo, 168 h, time 7 day
# [28] = Toxicity in BALB/c mouse assessed as inflammatory cell infiltration in hepatocytes at 15 mg/kg, ip bid for 7 days; format: organism-based; settings: in vivo, 168 h, time 7 day
# Staphylococcus aureus [29] = test: Bactericidal activity against methicillin-resistant Staphylococcus aureus clinical isolate M12 infected in KM mouse assessed as decrease in inflammatory cells in dermis at 10 mg/kg, sc measured after 24 hrs; format: functional, organism-based
# Staphylococcus aureus [30] = test: Antibacterial activity against methicillin-resistant Staphylococcus aureus clinical isolate M12 infected in KM mouse assessed as reduction in TNF-alpha level at infection site at 5 mg/kg, sc measured after 24 hrs by ELISA; format: functional
# [31] = Toxicity in KM mouse infected with methicillin-resistant Staphylococcus aureus clinical isolate M12 assessed as histopathological abnormality in liver at 5 to 10 mg/kg, sc measured after 24 hrs by H and E staining based analysis; format: organism-based; settings: in vivo, dose 5-10 mg/kg
# [32] = Toxicity in KM mouse infected with methicillin-resistant Staphylococcus aureus clinical isolate M12 assessed as histopathological abnormality in spleen at 5 to 10 mg/kg, sc measured after 24 hrs by H and E staining based analysis; format: organism-based; settings: in vivo, dose 5-10 mg/kg
# [33] = Toxicity in KM mouse infected with methicillin-resistant Staphylococcus aureus clinical isolate M12 assessed as damage in heart at 5 to 10 mg/kg, sc measured after 24 hrs by H and E staining based analysis; format: organism-based; settings: in vivo, dose 5-10 mg/kg
# [34] = Toxicity in KM mouse infected with methicillin-resistant Staphylococcus aureus clinical isolate M12 assessed as damage in lung at 5 to 10 mg/kg, sc measured after 24 hrs by H and E staining based analysis; format: organism-based; settings: in vivo, dose 5-10 mg/kg
# [35] = Toxicity in KM mouse infected with methicillin-resistant Staphylococcus aureus clinical isolate M12 assessed as damage in spleen at 5 to 10 mg/kg, sc measured after 24 hrs by H and E staining based analysis; format: organism-based; settings: in vivo, dose 5-10 mg/kg
# [36] = Toxicity in KM mouse infected with methicillin-resistant Staphylococcus aureus clinical isolate M12 assessed as damage in kidney at 5 to 10 mg/kg, sc measured after 24 hrs by H and E staining based analysis; format: organism-based; settings: in vivo, dose 5-10 mg/kg
# Staphylococcus aureus [37] = test: (§1) Antibacterial activity against methicillin-resistant Staphylococcus aureus clinical isolate M12 infected in sepsis BALB/c mouse model assessed as decrease in necrosis in hepatocytes at 6 mg/kg, ip administered consecutively at 12 hr-interval for 24 hrs measured after 24 hrs post-last dose by H and E staining based analysis; format: functional, organism-based; settings: time 48.0 hrs
# Staphylococcus aureus [38] = test: as §1, with “degeneration of” for “necrosis in”; format: functional, organism-based; settings: time 48.0 hrs
# Staphylococcus aureus [39] = test: as §1, with “pathological change” for “necrosis”, “red medulla of spleen” for “hepatocytes”; format: functional, organism-based; settings: time 48.0 hrs
smiles,measurement,setting,value
C=CCc1cc(-c2ccc(OCCC[N+](C)(C)CC(=O)NCCCC)c(CC=C)c2)c2oc(=S)n(Cc3ccc(F)cc3)c2c1.[Br-],MIC,Staphylococcus aureus [1],4 µg/mL
same,MIC,Staphylococcus aureus [2],2 µg/mL
same,MIC,Staphylococcus aureus [3],4 µg/mL
same,MIC,Escherichia coli,> 128 µg/mL
same,HC50 at 1 h,[4],157 µg/mL
same,Activity,Staphylococcus aureus [5],Active
same,Activity,Staphylococcus aureus [6],Active
same,Activity,Staphylococcus aureus [7],100%
same,fold change (FC),Staphylococcus aureus [8],~1.8
same,fold change (FC),Staphylococcus aureus [9],~4
same,Activity,Staphylococcus aureus [10],Dose-Dependent Effect
same,viability at 64 ug/ml,[11],~70%
same,Activity,[12],Toxic
same,Activity,[13],Non-Toxic
same,Activity,[14],Non-Toxic
same,Activity,[15],Non-Toxic
same,Activity,[16],Non-Toxic
same,Activity,[17],Non-Toxic
same,Activity,[18],Non-Toxic
same,Activity,[19],Non-Toxic
same,Activity,[20],Non-Toxic
same,Activity,[21],Non-Toxic
same,Activity,[22],Non-Toxic
same,Activity,[23],Non-Toxic
same,Activity,[24],Non-Toxic
same,Activity,[25],Non-Toxic
same,Activity,[26],Non-Toxic
same,Activity,[27],Non-Toxic
same,Activity,[28],Non-Toxic
same,Activity,Staphylococcus aureus [29],Active
same,Activity,Staphylococcus aureus [30],91.5 pg/mL
same,Activity,[31],Non-Toxic
same,Activity,[32],Non-Toxic
same,Activity,[33],Non-Toxic
same,Activity,[34],Non-Toxic
same,Activity,[35],Non-Toxic
same,Activity,[36],Non-Toxic
same,Activity,Staphylococcus aureus [37],inactive
same,Activity,Staphylococcus aureus [38],inactive
same,Activity,Staphylococcus aureus [39],inactive
